Measurements taken from patent US10561703B2, “Method of modulating sex hormone levels using a sex hormone secretion modulator” (GEMVAX & KAEL CO., LTD., priority 2013, dated 2020).

Test system: FSH
Test: FSH level in blood (serum CLIA) after repeated sc PEP-1
Type: in vivo, SD rats
Experimental: PEP-1 (peptide of SEQ ID NO: 1), lyophilized white powder, obtained according to the method mentioned in example 1 was dissolved in 0.9% of saline, considering the correction factor of PEP-1 (purity: 94.13%, content: 92.36%, correction factor: 1.15). 50 mg/mL stock solution was further diluted into 20 mg/mL, 2 mg/mL, and 1 mg/mL with 0.9% saline, and stored at 4° C. for a week until the use.
The purpose of this example is to confirm the change of sexual hormones in blood from SD rats with 7 days repeated daily administration of SEQ ID NO: 1 peptide, PEP-1. This experiment followed the Ethics Regulation of Animal Test by KAMSI Inc. (Korea Animal Medical Science Institute). In addition, this experiment, Non-GLP experiment, referred to the MFDS (Ministry of Food and Drug Safety) notification; Agent 2013-40 (5th April 2013), Principles of Good Laboratory Practice (1997).
SPF Rats (Crlj:CD(SD)) were purchased from ORIENTBio Inc. (Mokdong-ri, Buk-myeon, Gapyeong-gun, Gyeonggi-do, Republic of Korea). 75 male (6.5 weeks old and 190˜210 g) and 75 female (6.5 weeks old and 160˜180 g) rats were monitored for 4 days, and 64 of male and female rats (each) were selected for the experiment. Raising condition is as follows; 23±3° C. of temperature, […] of relative humidity, 10˜20 times/hr of number of air changes, 12 hours (8 a.m.˜8 p.m.) of lighting with 150˜300 Lux of intensity.
64 male and female […] (mentioned above) were divided into 8 groups. Administration regimen, for example, drugs, routes, dosages, and volumes were as follows:
The detailed administration regimen is as follows; once a day, twice a day and twice a week in each experimental group. Injection initiated at 10 a.m. every day, and each rat was injected at one minute intervals. Rats in Group 9, 10, 13 and 14 were injected twice a week. Administration of high dose test agent preceded that of low dose. The volume of injection was calculated using recently measured weight of rats, and it was 5 mL/kg. Subcutaneous injection was performed as follows; assistant tilted the back of rat upward, and experimenter sterilized the back of rat with 70% alcohol, followed by subcutaneous injection of test agent with 26 G syringe.
1.4 mL of blood sample (0.7 mL of serum) was collected after measurement of weight (Day 0). Next day (1 Day), 1.4 mL of blood sample (0.7 mL of serum) was collected twice after injection of test agent (4 hrs and 8 hrs after administration of test agent). For next 6 days (Day 2˜Day 7), 1.4 mL of blood was extracted once everyday (4 hours after injection of test agent). Dose and volume of test agent of each group followed the Table 3, and injection time zone was same every day. Blood was extracted from the jugular vein, and left at room temperature for 30 minutes. Serum was separated using centrifugation (10,000 rpm for 5 minutes), and stored at −70±5° C. in Deep freezer until the use. Blood extraction from each subject was done in the same time zone every day.
A CLIA (Chemi-Luminescence Immune Assay) Kit was used to analyze Testosterone, Estradiol E2, FSH (Follicle stimulating hormone), and LH (Luteinizing hormone). Analysis was completed within 48 hrs after blood extraction (Laboratory Medicine Department, Chung-Ang University Hospital), and detailed method is as follows; One-way ANOVA was used to verify the comparison between the vehicle and PEP-1, and between different doses of PEP-1. For further analysis, Duncan test was used as parametric test and Dunnett's test as non-parametric test. p<0.05 represents the statistical significance, and all statistical analysis was carried out with SPSS 10.1.
FSH was analyzed using the samples prepared from example 2. 100 μL of serum was used for analysis. Fundamentals of analysis is Two-site sandwich immunoassay based on direct chemi-luminescent. As mentioned in example 2, CLIA (Chemi-luminescence immune assay) Kit was used, following the manufacture's protocol.

**Q.** With “EARPALLTSRLRFIPK (listed as Homo sapiens) [PEP-1, hormone secretion modulator / GnRH analog]” as the sequence, how does the “FSH level in blood” value (G3 Male 5 mg/kg sc 1/day x7, 7 days) read?
**A.** 0.10 mIU/mL

**Q.** And the “FSH level in blood” value (G4 Female 5 mg/kg sc 1/day x7, 4 hr)?
**A.** 0.17 mIU/mL

**Q.** What about the “FSH level in blood” value (G4 Female 5 mg/kg sc 1/day x7, 8 hr) of the same sequence?
**A.** 0.30 mIU/mL

**Q.** What about the “FSH level in blood” value (G4 Female 5 mg/kg sc 1/day x7, 2 days) of the same sequence?
**A.** 0.32 mIU/mL

**Q.** What about the “FSH level in blood” value (G4 Female 5 mg/kg sc 1/day x7, 3 days) of the same sequence?
**A.** 0.12 mIU/mL

**Q.** What about the “FSH level in blood” value (G4 Female 5 mg/kg sc 1/day x7, 4 days) of the same sequence?
**A.** 0.17 mIU/mL

**Q.** What about the “FSH level in blood” value (G4 Female 5 mg/kg sc 1/day x7, 5 days) of the same sequence?
**A.** 0.21 mIU/mL

**Q.** What about the “FSH level in blood” value (G4 Female 5 mg/kg sc 1/day x7, 6 days) of the same sequence?
**A.** 0.13 mIU/mL

**Q.** What about the “FSH level in blood” value (G4 Female 5 mg/kg sc 1/day x7, 7 days) of the same sequence?
**A.** 0.17 mIU/mL

**Q.** And the “FSH level in blood” value (G4 Female 5 mg/kg sc 1/day x7, pre)?
**A.** 0.20 mIU/mL

**Q.** What about the “FSH level in blood” value (G6 Female 10 mg/kg sc 1/day x7, 4 hr) of the same sequence?
**A.** 0.31 mIU/mL

**Q.** What about the “FSH level in blood” value (G6 Female 10 mg/kg sc 1/day x7, 8 hr) of the same sequence?
**A.** 0.48 mIU/mL

**Q.** What about the “FSH level in blood” value (G6 Female 10 mg/kg sc 1/day x7, 2 days) of the same sequence?
**A.** 0.31 mIU/mL

**Q.** What about the “FSH level in blood” value (G6 Female 10 mg/kg sc 1/day x7, 3 days) of the same sequence?
**A.** 0.20 mIU/mL

**Q.** What about the “FSH level in blood” value (G6 Female 10 mg/kg sc 1/day x7, 4 days) of the same sequence?
**A.** 0.17 mIU/mL

**Q.** And the “FSH level in blood” value (G6 Female 10 mg/kg sc 1/day x7, 5 days)?
**A.** 0.19 mIU/mL

**Q.** What about the “FSH level in blood” value (G6 Female 10 mg/kg sc 1/day x7, 6 days) of the same sequence?
**A.** 0.1 mIU/mL

**Q.** What about the “FSH level in blood” value (G6 Female 10 mg/kg sc 1/day x7, 7 days) of the same sequence?
**A.** 0.16 mIU/mL

**Q.** And the “FSH level in blood” value (G6 Female 10 mg/kg sc 1/day x7, pre)?
**A.** 0.31 mIU/mL

**Q.** And the “FSH level in blood” value (G8 Female 10 mg/kg sc 2/day x4, 4 hr)?
**A.** 0.26 mIU/mL

**Q.** What about the “FSH level in blood” value (G8 Female 10 mg/kg sc 2/day x4, 8 hr) of the same sequence?
**A.** 0.21 mIU/mL

**Q.** And the “FSH level in blood” value (G8 Female 10 mg/kg sc 2/day x4, 2 days)?
**A.** 0.28 mIU/mL

**Q.** What about the “FSH level in blood” value (G8 Female 10 mg/kg sc 2/day x4, 3 days) of the same sequence?
**A.** 0.18 mIU/mL

**Q.** And the “FSH level in blood” value (G8 Female 10 mg/kg sc 2/day x4, 4 days)?
**A.** 0.13 mIU/mL

**Q.** What about the “FSH level in blood” value (G8 Female 10 mg/kg sc 2/day x4, 5 days) of the same sequence?
**A.** 0.16 mIU/mL

**Q.** What about the “FSH level in blood” value (G8 Female 10 mg/kg sc 2/day x4, 6 days) of the same sequence?
**A.** 0.15 mIU/mL

**Q.** And the “FSH level in blood” value (G8 Female 10 mg/kg sc 2/day x4, 7 days)?
**A.** 0.21 mIU/mL

**Q.** What about the “FSH level in blood” value (G8 Female 10 mg/kg sc 2/day x4, pre) of the same sequence?
**A.** 0.26 mIU/mL

**Q.** What about the “FSH level in blood” value (G9 Male 10 mg/kg sc 2/week x2 (days 1,7), 4 hr) of the same sequence?
**A.** 0.29 mIU/mL

**Q.** What about the “FSH level in blood” value (G9 Male 10 mg/kg sc 2/week x2 (days 1,7), 8 hr) of the same sequence?
**A.** 0.28 mIU/mL

**Q.** And the “FSH level in blood” value (G9 Male 10 mg/kg sc 2/week x2 (days 1,7), 2 days)?
**A.** 0.22 mIU/mL

**Q.** What about the “FSH level in blood” value (G9 Male 10 mg/kg sc 2/week x2 (days 1,7), 3 days) of the same sequence?
**A.** 0.17 mIU/mL

**Q.** What about the “FSH level in blood” value (G9 Male 10 mg/kg sc 2/week x2 (days 1,7), 4 days) of the same sequence?
**A.** 0.37 mIU/mL

**Q.** What about the “FSH level in blood” value (G9 Male 10 mg/kg sc 2/week x2 (days 1,7), 5 days) of the same sequence?
**A.** 0.25 mIU/mL

**Q.** And the “FSH level in blood” value (G9 Male 10 mg/kg sc 2/week x2 (days 1,7), 6 days)?
**A.** 0.14 mIU/mL

**Q.** And the “FSH level in blood” value (G9 Male 10 mg/kg sc 2/week x2 (days 1,7), 7 days)?
**A.** 0.15 mIU/mL

**Q.** What about the “FSH level in blood” value (G9 Male 10 mg/kg sc 2/week x2 (days 1,7), pre) of the same sequence?
**A.** 0.28 mIU/mL

**Q.** What about the “FSH level in blood” value (G10 Female 10 mg/kg sc 2/week x2 (days 1,7), 4 hr) of the same sequence?
**A.** 0.26 mIU/mL

**Q.** What about the “FSH level in blood” value (G10 Female 10 mg/kg sc 2/week x2 (days 1,7), 8 hr) of the same sequence?
**A.** 0.44 mIU/mL

**Q.** What about the “FSH level in blood” value (G10 Female 10 mg/kg sc 2/week x2 (days 1,7), 2 days) of the same sequence?
**A.** 0.37 mIU/mL

**Q.** And the “FSH level in blood” value (G10 Female 10 mg/kg sc 2/week x2 (days 1,7), 3 days)?
**A.** 0.21 mIU/mL

**Q.** And the “FSH level in blood” value (G10 Female 10 mg/kg sc 2/week x2 (days 1,7), 4 days)?
**A.** 0.18 mIU/mL

**Q.** And the “FSH level in blood” value (G10 Female 10 mg/kg sc 2/week x2 (days 1,7), 5 days)?
**A.** 0.32 mIU/mL

**Q.** What about the “FSH level in blood” value (G10 Female 10 mg/kg sc 2/week x2 (days 1,7), 6 days) of the same sequence?
**A.** 0.23 mIU/mL

**Q.** And the “FSH level in blood” value (G10 Female 10 mg/kg sc 2/week x2 (days 1,7), 7 days)?
**A.** 0.28 mIU/mL

**Q.** And the “FSH level in blood” value (G10 Female 10 mg/kg sc 2/week x2 (days 1,7), pre)?
**A.** 0.31 mIU/mL

**Q.** And the “FSH level in blood” value (G11 Male 100 mg/kg sc 1/day x7, 4 hr)?
**A.** 0.27 mIU/mL

**Q.** What about the “FSH level in blood” value (G11 Male 100 mg/kg sc 1/day x7, 8 hr) of the same sequence?
**A.** 0.36 mIU/mL

**Q.** And the “FSH level in blood” value (G11 Male 100 mg/kg sc 1/day x7, 2 days)?
**A.** 0.17 mIU/mL

**Q.** What about the “FSH level in blood” value (G11 Male 100 mg/kg sc 1/day x7, 3 days) of the same sequence?
**A.** 0.14 mIU/mL
